According to patent US20240426776A1, “RAPID DIFFERENTIATION OF ANTIBIOTIC-SUSCEPTIBLE AND -RESISTANT BACTERIA THROUGH MEDIATED EXTRACELLULAR ELECTRON TRANSFER” (priority 2021, published 2024):
“And” between values parts separate entries of the source, which are not always exact repeats. Equal entries are not always repeated. Marks after values point to notes of the source that are not given here.

Assays:
[1] = tested on: Gram-negative 1 AR55 and Gram-negative 2 AR58; assay: READAS operator blinded test; format: cell-based; conditions: for ASIn: imipenem increased from 2× to 20× (12 to 120 μg/mL), OD600=0.1; for READAS susceptibility (first symbol of cell): imipenem up to 20× (120 μg/mL)
Experimental: Tests were conducted for which the species or resistance phenotype was not known beyond the fact that one set was a Gram-positive and the other Gram-negative, and the antibiotics to be tested were oxacillin and imipenem, respectively. The isolates were provided as coded streak plates. Because the species were unknown, the breakpoint concentration of oxacillin and imipenem were estimated from the known breakpoints of the four previously tested strains (as shown in Table 1; 6 μg/mL for oxacillin, S. aureus and 6 μg/mL imipenem for Gram-negative strains). Following the decision methodology for determining antibiotic susceptibility and resistance of READAS, the strains were first tested with 2× the resistance breakpoint concentration (12 μg/mL oxacillin or imipenem) and the ASI2 was measured. This was increased up to 24× the resistance breakpoint concentration. If ASI2≥0.4 then the strain was considered susceptible. […] If neither strain achieved an ASI2≥0.4, 24× the resistance breakpoint concentration was tested and the ASI24 was measured.
As another example method of operation, operator blinded tests were conducted using susceptible and resistant strains of Gram-positive and -negative bacteria. Because the species identification was unknown, […] oxacillin was chosen as the estimated resistance breakpoint for the Gram-positive strain and 6 μg/mL imipenem was initially chosen as the resistance breakpoint for the Gram-negative strain. The stains selected for this example method of operation include Gram-positive 1 ATCC 29213, Gram-positive 2 BAA-1026, Gram-negative 1 AR55 and Gram-negative 2 AR58 with cultures of OD600=0.1, for simplicity.
(§1) Both Gram-positive strains were correctly classified using 2×(12 μg/mL oxacillin) in <120 min (97±45 min and 103±33 min). The Gram-negative strains were also correctly classified after increasing concentrations of imipenem from 2× to 20×(12 to 120 μg/mL imipenem). […] These phenotypic results were confirmed with results of standard procedure known to those skilled in the art and are included in Table 4 below, wherein READAS(S) susceptibility was defined by an ASIn≥0.4; (R) resistant was defined by an ASIn<0.4; analysis time shown in minutes. The standard procedure established susceptibility or resistance, MIC in μg/mL, and analysis time shown in hours.

[2] = tested on: Gram-negative 1 AR55 and Gram-negative 2 AR58; assay: Standard procedure confirming blinded test (susceptibility, MIC, analysis time); format: cell-based; design: key to Standard procedure susceptibility or resistance (second symbol of cell): S: The standard procedure established susceptibility or resistance; R: The standard procedure established susceptibility or resistance
Experimental: as §1

[3] = tested on: Staphylococcus aureus (strains 29213 and 43300); assay: READAS electrochemical current response with PMS mediator (ASIn); format: cell-based; conditions: for ASIn (antibiotic susceptibility index), single replicates: tobramycin 10× breakpoint (160 μg/mL), ASI10, 15 μM PMS, 0.1 OD600
Experimental: Each measurement was replicated at least four times.
(S. aureus experiments) or 37° C. (all others) MH media.
The current responses measured follows a sigmoidal curve structure.
As a second example method of operation, the S. aureus strains selected from Table 2 were assessed. Initially, a 2×CLSI resistance breakpoint concentrations for two antibiotics oxacillin (12 μg/mL) and tobramycin (32 μg/mL) were used for the example method of operation. The ASI2<0.4 and it was concluded that the concentration of the antibiotics was insufficient to classify the strains as antibiotic-susceptible or -resistant. S. aureus was then treated with 4×, 6×, 8×, 10×, and 20× the breakpoint concentration of oxacillin and was compared to the control as depicted in FIG. 8A. […] S. aureus was also treated with 4× and 10× the breakpoint concentration of tobramycin and was compared to the control depicted in FIG. 8B. […] The efficacy of antibiotic was proportional to the concentration when a high cell density (1.1×10^8 CFU/mL) was used.
The ASIn analysis time for classifying the strains as resistant or susceptible for tobramycin treatment was 33-78 min which was 30 min less than needed for detecting oxacillin susceptibility which required 60-96 min.

[4] = tested on: Acinetobacter baumannii (strains 35, 78, 83, and 102); conditions: cited from earlier work
[5] = tested on: Staphylococcus aureus (strains 29213 and 43300); conditions: cited from earlier work

| SMILES | ASIn ([1]; Gram-negative 1 (AR55)) | READAS susceptibility (first symbol of cell) ([1]; Gram-negative 1 (AR55)) | ASIn ([1]; Gram-negative 2 (AR58)) | READAS susceptibility (first symbol of cell) ([1]; Gram-negative 2 (AR58)) | MIC ([2]; Gram-negative 1 (AR55)) | Standard procedure susceptibility or resistance (second symbol of cell) ([2]; Gram-negative 1 (AR55)) | MIC ([2]; Gram-negative 2 (AR58)) | Standard procedure susceptibility or resistance (second symbol of cell) ([2]; Gram-negative 2 (AR58)) | current response with increasing antibiotic concentration ([3]; oxacillin 4×, 6×, 8×, 10×, 20× breakpoint (FIG. 8A), tobramycin 4× and 10× (FIG. 8B), […]10^8 CFU/mL) | ASIn (antibiotic susceptibility index), single replicates ([3]; strain 29213 (susceptible)) | average ASI10 (±SE) ([3]; strain 43300 (resistant), tobramycin 10× (160 μg/mL)) | ASIn (antibiotic susceptibility index), single replicates ([3]; strain 43300 (resistant)) | CLSI guidelines (resistance breakpoint) for the species [4] | CLSI guidelines (resistance breakpoint) for the species [5] |
| --- | --- | --- | --- | --- | --- | --- | --- | --- | --- | --- | --- | --- | --- | --- |
| C[C@@H](O)[C@H]1C(=O)N2C(C(=O)O)=C(SCCN=CN)C[C@H]12 [Imipenem, imipenem] | 0.1 ± 0.23^c | R/R ((R) resistant was defined by an ASIn<0.4) | 0.99 ± 0.01^c | S/S (READAS(S) susceptibility was defined by an ASIn≥0.4) | ≥ 16 µg/mL | R/R | ≤ 0.25 µg/mL | S/S |  |  |  |  |  |  |
| NC[C@H]1O[C@H](O[C@H]2[C@H](O)[C@@H](O[C@H]3O[C@H](CO)[C@@H](O)[C@H](N)[C@H]3O)[C@H](N)C[C@@H]2N)[C@H](N)C[C@@H]1O [Tobramycin, tobramycin] |  |  |  |  |  |  |  |  | decreased the current magnitude to ASIn≥0.4 and increased the response time | 0.52 and 0.6 and 0.16 and 0.34 | −0.10±0.14 | 0.12 and −0.01 and −0.42 | 16 µg/mL | 16 µg/mL |
